One experiment has as its target TgCLK (Toxoplasma gondii, UniProt V4ZJD6). As to the kind of experiment: Protein kinase assay. The class given is biochemical.
Another experiment addresses T1, DYRK3 (Homo sapiens, UniProt O43781).
T1 sequence (O43781 1-588): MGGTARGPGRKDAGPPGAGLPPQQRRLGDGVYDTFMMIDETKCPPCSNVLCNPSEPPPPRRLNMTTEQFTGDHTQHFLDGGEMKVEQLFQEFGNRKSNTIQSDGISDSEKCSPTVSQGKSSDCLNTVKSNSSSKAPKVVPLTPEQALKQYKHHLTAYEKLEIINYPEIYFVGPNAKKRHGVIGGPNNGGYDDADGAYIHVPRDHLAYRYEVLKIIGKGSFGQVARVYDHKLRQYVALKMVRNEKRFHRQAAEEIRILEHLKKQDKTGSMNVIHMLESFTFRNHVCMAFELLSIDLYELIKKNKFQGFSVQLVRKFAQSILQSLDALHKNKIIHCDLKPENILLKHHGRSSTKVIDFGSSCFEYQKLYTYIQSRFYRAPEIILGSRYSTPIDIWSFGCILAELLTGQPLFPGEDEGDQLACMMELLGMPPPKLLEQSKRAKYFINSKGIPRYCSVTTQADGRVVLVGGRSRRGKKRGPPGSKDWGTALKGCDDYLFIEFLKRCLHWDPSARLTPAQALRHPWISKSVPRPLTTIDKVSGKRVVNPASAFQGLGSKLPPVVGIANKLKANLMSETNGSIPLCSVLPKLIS
As to the kind of experiment: Protein kinase assay. The class given is biochemical.

For the next experiment, the target named is DYRK1B (Homo sapiens, UniProt Q9Y463). The experiment in a line: Protein kinase assay. The conditions noted are these: 15 μmol/L ATP. The class given is biochemical.
Chain of DYRK1B (Q9Y463 whole entry): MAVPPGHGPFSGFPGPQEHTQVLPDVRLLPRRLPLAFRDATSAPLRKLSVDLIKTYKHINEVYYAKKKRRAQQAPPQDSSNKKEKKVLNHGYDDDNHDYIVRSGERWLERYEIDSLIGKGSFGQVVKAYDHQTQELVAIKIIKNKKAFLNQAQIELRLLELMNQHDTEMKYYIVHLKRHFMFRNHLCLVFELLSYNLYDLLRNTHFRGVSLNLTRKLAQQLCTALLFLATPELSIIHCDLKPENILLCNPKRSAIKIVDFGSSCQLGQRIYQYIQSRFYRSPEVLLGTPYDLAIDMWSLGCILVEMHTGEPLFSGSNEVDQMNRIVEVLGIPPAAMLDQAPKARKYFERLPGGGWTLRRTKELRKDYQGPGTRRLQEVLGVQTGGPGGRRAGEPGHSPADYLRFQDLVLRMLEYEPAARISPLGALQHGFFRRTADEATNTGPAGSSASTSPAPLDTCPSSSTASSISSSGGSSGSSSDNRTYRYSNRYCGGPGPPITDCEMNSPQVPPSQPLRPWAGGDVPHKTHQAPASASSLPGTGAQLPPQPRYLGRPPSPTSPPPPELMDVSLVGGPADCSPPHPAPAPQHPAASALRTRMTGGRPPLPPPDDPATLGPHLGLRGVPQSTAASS
The target of another experiment is T2, CDK2/cyclin A (Homo sapiens, UniProt P24941).
T2 construct: made in house
As to the kind of experiment: Protein kinase assay. The class given is biochemical.

For experiment [1], the system named is 27 purified kinases (14 mammalian and 13 unicellular parasites). The experiment in a line: Battery of 27 purified kinases.
Source text: We tested a selection of these 2-aminoimidazolones (Figure 1) on a battery of 27 purified kinases (14 mammalian and 13 unicellular parasites (Supplementary Table S3)).
For experiment [2], the target named is T3, DYRK2 (Homo sapiens, UniProt Q92630).
T3 sequence (Q92630 1-601): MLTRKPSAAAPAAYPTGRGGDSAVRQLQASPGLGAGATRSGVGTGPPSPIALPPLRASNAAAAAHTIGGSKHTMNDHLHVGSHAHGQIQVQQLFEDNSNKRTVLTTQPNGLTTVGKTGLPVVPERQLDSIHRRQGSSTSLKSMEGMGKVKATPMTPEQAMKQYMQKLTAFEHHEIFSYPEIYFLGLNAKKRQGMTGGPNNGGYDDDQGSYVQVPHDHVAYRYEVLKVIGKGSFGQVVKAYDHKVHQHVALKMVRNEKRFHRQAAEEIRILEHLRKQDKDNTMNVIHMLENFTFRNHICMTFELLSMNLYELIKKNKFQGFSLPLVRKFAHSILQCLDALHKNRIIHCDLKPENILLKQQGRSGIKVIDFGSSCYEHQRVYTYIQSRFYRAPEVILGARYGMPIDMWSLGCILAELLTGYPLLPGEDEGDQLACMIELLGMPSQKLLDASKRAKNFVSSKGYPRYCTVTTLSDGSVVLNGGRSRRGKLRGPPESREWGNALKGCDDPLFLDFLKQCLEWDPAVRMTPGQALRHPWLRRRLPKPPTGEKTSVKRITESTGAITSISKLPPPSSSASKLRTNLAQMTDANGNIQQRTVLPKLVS
The experiment in a line: Protein kinase assay. The class given is biochemical.

The target of another experiment is DYRK1A (Homo sapiens, UniProt Q13627). The experiment in a line: Protein kinase assay. The class given is biochemical. The conditions noted are these: 15 μmol/L ATP.
The target of a further experiment is T4, CDK5/p25 (Homo sapiens, UniProt Q00535).
T4 construct: made in house
T4 sequence (Q00535 whole entry): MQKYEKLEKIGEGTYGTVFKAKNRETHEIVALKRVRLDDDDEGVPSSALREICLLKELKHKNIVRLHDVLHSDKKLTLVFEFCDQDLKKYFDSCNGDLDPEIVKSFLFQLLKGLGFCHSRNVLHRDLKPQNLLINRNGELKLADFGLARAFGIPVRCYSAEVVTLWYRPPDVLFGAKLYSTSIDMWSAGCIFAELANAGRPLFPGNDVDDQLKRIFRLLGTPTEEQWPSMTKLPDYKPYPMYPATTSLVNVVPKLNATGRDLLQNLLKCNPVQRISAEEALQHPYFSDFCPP
T4 sequence (Q15078 99-307 partner limits assumed): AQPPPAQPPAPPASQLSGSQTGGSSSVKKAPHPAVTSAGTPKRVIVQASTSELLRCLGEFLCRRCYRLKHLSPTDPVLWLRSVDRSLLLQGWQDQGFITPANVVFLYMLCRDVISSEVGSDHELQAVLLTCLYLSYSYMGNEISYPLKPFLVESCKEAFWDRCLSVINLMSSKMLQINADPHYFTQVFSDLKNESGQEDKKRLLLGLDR
As to the kind of experiment: Protein kinase assay. The class given is biochemical.

The next experiment addresses T5, BRSK2 (Homo sapiens, UniProt Q8IWQ3).
T5 construct: purchased DiscoverX (KINOMEscan)
The experiment in a line: KinomeScan. The class given is binding. The conditions noted are these: 1 μM. How it is done: (§1) Assays were performed essentially as described previously. For most assays, kinase-tagged T7 phage strains were grown in parallel in 24-well blocks in an E. coli host derived from the BL21 strain. E. coli were grown to log-phase and infected with T7 phage from a frozen stock (multiplicity of infection ~0.1) and incubated with shaking at 32 °C until lysis (~90 min). The lysates were centrifuged (6000× g) and filtered (0.2 μm) to remove cell debris. The remaining kinases were produced in HEK-293 cells and subsequently tagged with DNA for qPCR detection. […] The liganded beads were blocked with excess biotin and washed with blocking buffer (SeaBlock (Pierce, ThermoFisher Scientific, Illkirch, France), 1% BSA, 0.05% Tween 20, 1 mM DTT) to remove unbound ligand and to reduce non-specific phage binding. […] An 11-point threefold serial dilution of each test compound was prepared in 100% DMSO at 100× final test concentration which and subsequently diluted to 1× in the assay. All reactions were performed in polystyrene 96-well plates in a final volume of 0.135 mL. […] The kinase concentration in the eluates was measured by qPCR.

In a further experiment the target is T6, GRK1 (Homo sapiens, UniProt Q15835).
T6 construct: purchased DiscoverX (KINOMEscan)
T6 sequence (Q15835 whole entry): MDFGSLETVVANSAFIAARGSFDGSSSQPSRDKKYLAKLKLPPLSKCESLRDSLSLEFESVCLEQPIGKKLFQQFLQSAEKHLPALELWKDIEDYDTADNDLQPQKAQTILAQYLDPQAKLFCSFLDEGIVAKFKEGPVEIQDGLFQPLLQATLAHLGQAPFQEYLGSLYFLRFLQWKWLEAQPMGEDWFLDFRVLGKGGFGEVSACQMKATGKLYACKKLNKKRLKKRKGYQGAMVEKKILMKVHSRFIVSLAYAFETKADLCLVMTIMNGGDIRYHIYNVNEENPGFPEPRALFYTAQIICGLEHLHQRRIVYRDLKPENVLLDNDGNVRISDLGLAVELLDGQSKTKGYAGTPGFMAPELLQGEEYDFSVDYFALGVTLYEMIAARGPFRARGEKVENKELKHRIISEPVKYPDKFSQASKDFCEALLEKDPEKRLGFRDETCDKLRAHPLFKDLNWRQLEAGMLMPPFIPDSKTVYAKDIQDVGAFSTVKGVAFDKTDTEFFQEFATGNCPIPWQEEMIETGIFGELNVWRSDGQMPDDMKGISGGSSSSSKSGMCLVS
The experiment in a line: KinomeScan. The class given is binding. The conditions noted are these: 1 μM. How it is done: as §1

The target of experiment [3] is T7, JAK2(JH1domain-catalytic) (Homo sapiens, UniProt O60674).
T7 construct: JAK2(JH1domain-catalytic); purchased DiscoverX (KINOMEscan)
The experiment in a line: KinomeScan. The class given is binding. The conditions noted are these: 1 μM. How it is done: as §1

In the next experiment the target is T8, FLT3(R834Q) (Homo sapiens, UniProt P36888, R834Q).
T8 construct: purchased DiscoverX (KINOMEscan)
The experiment in a line: KinomeScan. The class given is binding. The conditions noted are these: 1 μM. How it is done:
as §1

A further experiment addresses T9, IKK-epsilon (Homo sapiens, UniProt Q14164).
T9 construct: purchased DiscoverX (KINOMEscan)
The experiment in a line: KinomeScan. The class given is binding. The conditions noted are these: 1 μM. How it is done: as §1

A further experiment concerns the target T10, EGFR(L858R,T790M) (Homo sapiens, UniProt P00533, L858R/T790M).
T10 construct: purchased DiscoverX (KINOMEscan)
The experiment in a line: KinomeScan. The class given is binding. The conditions noted are these: 1 μM. On the procedure:
as §1

A further experiment deals with T11, TRPM6 (Homo sapiens, UniProt Q9BX84).
T11 construct: purchased DiscoverX (KINOMEscan)
The experiment in a line: KinomeScan. The class given is binding. The conditions noted are these: 1 μM. On the procedure:
as §1

Another experiment has as its target T12, YANK1 (Homo sapiens, UniProt Q8WU08).
T12 construct: purchased DiscoverX (KINOMEscan)
As to the kind of experiment: KinomeScan. The class given is binding. The conditions noted are these: 1 μM. How it is done: as §1

For another experiment, the target named is T13, MKNK2 (Homo sapiens, UniProt Q9HBH9).
T13 construct: purchased DiscoverX (KINOMEscan)
T13 sequence (Q9HBH9 whole entry): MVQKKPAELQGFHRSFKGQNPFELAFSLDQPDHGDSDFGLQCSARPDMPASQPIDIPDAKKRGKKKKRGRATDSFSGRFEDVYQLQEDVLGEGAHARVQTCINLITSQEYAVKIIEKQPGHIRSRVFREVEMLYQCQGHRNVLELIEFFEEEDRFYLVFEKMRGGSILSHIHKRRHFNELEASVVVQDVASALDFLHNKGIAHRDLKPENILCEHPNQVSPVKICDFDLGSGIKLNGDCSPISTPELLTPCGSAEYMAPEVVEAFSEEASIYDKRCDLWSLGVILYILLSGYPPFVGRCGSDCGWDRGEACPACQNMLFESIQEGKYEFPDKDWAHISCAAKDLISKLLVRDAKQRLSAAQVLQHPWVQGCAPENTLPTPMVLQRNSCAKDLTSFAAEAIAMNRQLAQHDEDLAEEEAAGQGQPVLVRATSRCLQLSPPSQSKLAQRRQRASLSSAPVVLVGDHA
As to the kind of experiment: KinomeScan. The class given is binding. The conditions noted are these: 1 μM. On the procedure: as §1

Experiment [4] addresses T3, DYRK2. The experiment in a line: KinomeScan. The class given is binding. The conditions noted are these: 1 μM. On the procedure: as §1
The next experiment concerns the target CLK1 (Homo sapiens, UniProt P49759). As to the kind of experiment: KinomeScan. The class given is binding. The conditions noted are these: 1 μM.
Where [5] appears, read: 15 μmol/L ATP; read-out: IC50 TgCLK.
Setting [6] is: 15 μmol/L ATP, read-out: IC50 DYRK3.
[7] abbreviates: 15 μmol/L ATP, read-out: IC50 CDK2/cyclin A.
Setting [8] is: 15 μmol/L ATP, read-out: IC50 DYRK2.
The mark [9] stands for this setting: 15 μmol/L ATP, read-out: IC50 CDK5/p25.

Each structure is given as a SMILES string. Like-named read-outs stand apart in the source and are kept apart here.

T10 sequence (P00533 25-1210 T790M/L858R): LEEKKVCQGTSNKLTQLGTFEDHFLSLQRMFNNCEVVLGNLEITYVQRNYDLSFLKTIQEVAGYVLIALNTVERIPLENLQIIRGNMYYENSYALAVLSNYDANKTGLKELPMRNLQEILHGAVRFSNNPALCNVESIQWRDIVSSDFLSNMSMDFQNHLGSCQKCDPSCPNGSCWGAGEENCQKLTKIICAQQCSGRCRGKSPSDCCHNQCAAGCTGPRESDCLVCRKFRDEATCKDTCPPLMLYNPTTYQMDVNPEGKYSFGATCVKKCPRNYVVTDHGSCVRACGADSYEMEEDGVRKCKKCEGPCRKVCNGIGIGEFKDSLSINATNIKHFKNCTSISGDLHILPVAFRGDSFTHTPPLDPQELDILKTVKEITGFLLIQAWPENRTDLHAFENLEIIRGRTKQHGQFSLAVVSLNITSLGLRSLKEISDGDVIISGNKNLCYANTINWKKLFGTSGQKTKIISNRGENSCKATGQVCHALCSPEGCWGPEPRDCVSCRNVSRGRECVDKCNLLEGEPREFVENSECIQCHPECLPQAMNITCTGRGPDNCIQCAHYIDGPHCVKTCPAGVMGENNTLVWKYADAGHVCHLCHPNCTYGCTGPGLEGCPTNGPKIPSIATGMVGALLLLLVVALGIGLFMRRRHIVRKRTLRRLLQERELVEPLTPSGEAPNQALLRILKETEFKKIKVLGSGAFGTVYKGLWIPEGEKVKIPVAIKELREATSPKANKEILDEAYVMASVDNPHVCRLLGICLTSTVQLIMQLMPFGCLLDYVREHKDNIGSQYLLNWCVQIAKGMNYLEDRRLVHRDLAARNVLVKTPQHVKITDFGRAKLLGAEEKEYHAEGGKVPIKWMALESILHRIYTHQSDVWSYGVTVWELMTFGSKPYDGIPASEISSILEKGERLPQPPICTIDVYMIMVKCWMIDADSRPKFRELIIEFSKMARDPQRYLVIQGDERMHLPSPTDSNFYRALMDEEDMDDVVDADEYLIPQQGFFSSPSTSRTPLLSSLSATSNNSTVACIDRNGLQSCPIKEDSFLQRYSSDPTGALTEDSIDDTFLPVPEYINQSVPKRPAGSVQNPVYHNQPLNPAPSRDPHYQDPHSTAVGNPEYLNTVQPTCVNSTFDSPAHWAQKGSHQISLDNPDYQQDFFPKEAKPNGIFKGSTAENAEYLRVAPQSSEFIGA
T5 sequence (Q8IWQ3 whole entry): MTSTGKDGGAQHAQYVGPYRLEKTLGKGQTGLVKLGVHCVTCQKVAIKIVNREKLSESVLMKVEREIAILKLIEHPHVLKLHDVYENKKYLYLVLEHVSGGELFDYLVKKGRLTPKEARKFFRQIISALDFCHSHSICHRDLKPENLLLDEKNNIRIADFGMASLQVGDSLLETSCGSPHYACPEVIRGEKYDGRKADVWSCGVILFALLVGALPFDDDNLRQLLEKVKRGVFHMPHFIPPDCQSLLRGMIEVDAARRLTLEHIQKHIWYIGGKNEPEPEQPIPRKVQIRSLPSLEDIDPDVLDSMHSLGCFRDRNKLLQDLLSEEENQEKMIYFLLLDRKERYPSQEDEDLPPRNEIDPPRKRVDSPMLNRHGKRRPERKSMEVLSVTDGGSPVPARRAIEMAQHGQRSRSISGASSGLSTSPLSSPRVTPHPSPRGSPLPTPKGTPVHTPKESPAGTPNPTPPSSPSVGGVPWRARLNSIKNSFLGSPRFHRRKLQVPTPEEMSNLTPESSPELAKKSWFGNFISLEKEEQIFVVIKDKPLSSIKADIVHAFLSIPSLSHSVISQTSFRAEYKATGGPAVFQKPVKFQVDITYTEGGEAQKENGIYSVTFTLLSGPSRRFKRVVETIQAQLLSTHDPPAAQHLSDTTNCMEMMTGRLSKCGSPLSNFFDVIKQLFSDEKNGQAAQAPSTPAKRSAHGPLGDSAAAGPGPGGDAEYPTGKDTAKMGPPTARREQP
T9 sequence (Q14164 whole entry): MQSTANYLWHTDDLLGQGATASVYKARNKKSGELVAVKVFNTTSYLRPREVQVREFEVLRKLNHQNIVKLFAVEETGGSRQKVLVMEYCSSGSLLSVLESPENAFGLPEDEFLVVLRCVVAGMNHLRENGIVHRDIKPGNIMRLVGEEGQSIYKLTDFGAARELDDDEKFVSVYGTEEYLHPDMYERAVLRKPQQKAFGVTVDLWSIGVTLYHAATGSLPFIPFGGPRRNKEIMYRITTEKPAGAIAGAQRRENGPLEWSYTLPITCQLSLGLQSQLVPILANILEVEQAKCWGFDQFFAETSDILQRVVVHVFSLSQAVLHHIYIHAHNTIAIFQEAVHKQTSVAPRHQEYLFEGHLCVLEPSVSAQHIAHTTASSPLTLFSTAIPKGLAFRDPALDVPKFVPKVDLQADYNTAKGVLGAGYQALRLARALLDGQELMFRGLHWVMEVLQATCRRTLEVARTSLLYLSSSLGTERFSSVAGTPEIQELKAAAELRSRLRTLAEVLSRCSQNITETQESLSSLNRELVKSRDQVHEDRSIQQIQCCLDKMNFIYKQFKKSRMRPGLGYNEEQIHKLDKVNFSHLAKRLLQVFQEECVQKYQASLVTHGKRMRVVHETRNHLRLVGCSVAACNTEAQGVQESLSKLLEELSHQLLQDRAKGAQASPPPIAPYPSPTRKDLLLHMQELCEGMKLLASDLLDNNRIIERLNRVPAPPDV

On to `CN1C(=N)N(C)/C(=C\c2c[nH]c3ccccc23)C1=O` [Aplysinopsine], for which the IC50 on TgCLK (setting [5]), on DYRK3 (setting [6]), on DYRK1B, at CDK2/cyclin A (setting [7]), at DYRK2 [2] (setting [8]) and at DYRK1A was more than 10 µM in each case. The IC50 on CDK5/p25 (setting [9]) is more than 10 µM. Besides, in [1], the “activity in the kinase panel” value was “essentially inactive”.
In the case of `CN1C(=N)N=C(Nc2nc(Cc3ccc4c(c3)OCO4)cn2C)C1=O` [Clathridimine], the IC50 on TgCLK (setting [5]) is more than 10 µM; at DYRK3 (setting [6]), 6.1 µM; at DYRK1B, 5.6 µM; on CDK2/cyclin A (setting [7]), more than 10 µM; on DYRK2 [2] (setting [8]) it was 6.2 µM; against DYRK1A, 5.2 µM. For the same compound, on CDK5/p25 (setting [9]), the IC50 was more than 10 µM. In addition, in experiment [1], the “activity in the kinase panel” value is “essentially inactive”.
For the compound `CN1C(=O)N=C(Nc2nc(Cc3ccc4c(c3)OCO4)cn2C)C1=O` [Clathridine], the IC50 was more than 10 µM on TgCLK (setting [5]); more than 10 µM on DYRK3 (setting [6]); more than 10 µM on DYRK1B; more than 10 µM on CDK2/cyclin A (setting [7]); 7.1 µM on DYRK2 [2] (setting [8]); 7.8 µM at DYRK1A. Further, the IC50 at CDK5/p25 (setting [9]) was more than 10 µM. Also, the “activity in the kinase panel” value in [1] is “essentially inactive”.
Regarding `NC1=N/C(=C\CCNC(=O)c2cc(Br)c(Br)[nH]2)C(=O)N1` [Dispacamide], the IC50 at TgCLK (setting [5]), on DYRK3 (setting [6]), against DYRK1B, on CDK2/cyclin A (setting [7]), at DYRK2 [2] (setting [8]) and on DYRK1A was more than 10 µM in each case. Besides, the IC50 on CDK5/p25 (setting [9]) was more than 10 µM. Also, the “activity in the kinase panel” value in experiment [1] is “essentially inactive”.
On to `NC1=NC(=O)/C(=C2\CCNC(=O)c3[nH]c(Br)cc32)N1` [Hymenialdisine, reference compound], for which the IC50 on TgCLK (setting [5]) came out at 0.041 µM; at DYRK3 (setting [6]), 0.0049 µM; at DYRK1B it was 0.0032 µM; at CDK2/cyclin A (setting [7]), 0.011 µM; on DYRK2 [2] (setting [8]), 0.0031 µM; against DYRK1A, 0.0033 µM. The IC50 at CDK5/p25 amounted to 0.0061 µM.
On to `CN1C(=O)/C(=C/c2ccc3c(c2)OCO3)N=C1N` [Leucettamine B], for which the IC50 on TgCLK (read-out: IC50 TgCLK; 15 μmol/L ATP) was 4.1 µM; at DYRK3 (IC50 DYRK3, 15 μmol/L ATP), 0.6 µM; against CDK2/cyclin A, more than 10 µM; at DYRK2 [2] (IC50 DYRK2, 15 μmol/L ATP), 0.49 µM. Also, the “activity in the kinase panel” value in experiment [1] is “modestly active”.
`COc1cc(/C=C2\N=C(N)NC2=O)ccc1O` [Polyandrocarpamine A]: the IC50 was more than 10 µM on TgCLK (setting [5]); 0.17 µM on DYRK3 (setting [6]); 0.43 µM at DYRK1B; more than 10 µM on CDK2/cyclin A (setting [7]); 0.42 µM at DYRK2 [2] (setting [8]); 0.27 µM on DYRK1A. For the same compound, the IC50 on CDK5/p25 (setting [9]) is more than 10 µM. Also, the Score on BRSK2 is 100; on GRK1, 100; in experiment [3] it was 97; on FLT3(R834Q), 100; on IKK-epsilon, 89; at EGFR(L858R,T790M) it was 100. Also, the Score came to 100 at TRPM6; 100 on YANK1; 100 on MKNK2; 24 at DYRK2 [4]; 32 on CLK1.
As to `NC1=N/C(=C\c2ccc(O)c(O)c2)C(=O)N1` [Polyandrocarpamine B], the IC50 at TgCLK (setting [5]) was more than 10 µM; on DYRK3 (setting [6]), 0.88 µM; at DYRK1B, 1.2 µM; at CDK2/cyclin A (setting [7]), more than 10 µM; on DYRK2 [2] (setting [8]), 0.76 µM; against DYRK1A, 0.47 µM. In addition, on CDK5/p25 (setting [9]), the IC50 is more than 10 µM.
As for `NC1=NC(=O)/C(=C2\CCNC(=O)c3[nH]cc(Br)c32)N1` [Spongiacidin B], the IC50 at TgCLK (setting [5]) stood at 0.48 µM; at DYRK3 (setting [6]), 0.044 µM; against DYRK1B, 0.0058 µM; at CDK2/cyclin A (setting [7]) it was 0.068 µM; on DYRK2 [2] (setting [8]), 0.021 µM; against DYRK1A, 0.78 µM. For the same compound, the IC50 on CDK5/p25 (setting [9]) amounted to 0.042 µM.
